# Reference: patent US20070128217A1 (priority 2003, published 2007)
# Experiments:
# [1] = test system: control sera (pooled serum of ten healthy LUMC hospital workers; commercial negative donor pooled serum from the Dutch bloodbank); format: binding, human; parameters: Binding of Control serum LUMC to linear peptides / Binding of Control serum Blood-bank to linear peptides / Binding of Control serum LUMC to looped peptides / Binding of Control Serum Blood-Bank to Looped peptides / Binding of Control serum LUMC to linear peptides of the protein M of SARS-CoV Urbani / Binding of Control serum Blood-bank to linear peptides of the protein M of SARS-CoV Urbani / Binding of Control serum LUMC to looped peptides of the protein M of SARS-CoV Urbani / Binding of Control Serum Blood-Bank to Looped peptides of the protein M of SARS-CoV Urbani: unit not given here
# [2] = test system: antibodies in sera from SARS patients (sera 1a, 1b, 2, 6, 37, 62, London, SARS-yellow, SARS-green); format: binding, human; parameters: Binding of serum 6 to linear peptides of protein X1 of SARS-CoV Urbani / Binding of serum 37 to linear peptides of protein X1 of SARS-CoV Urbani / Binding of serum 6 to looped/cyclic peptide (PEPSCAN-ELISA) / Binding of serum 37 to looped/cyclic peptide (PEPSCAN-ELISA) / Binding of serum 37 to looped/cyclic peptides of protein X1 of SARS-CoV Urbani / Binding of serum 6 to linear peptides of protein X2 / Binding of serum 37 to linear peptides of protein X2 / Binding of serum 37 to looped/cyclic peptides of protein X2 of SARS-CoV Urbani / Binding of serum 6 to linear peptides of protein M of SARS-CoV Urbani / Binding of serum 37 to linear peptides of protein M of SARS-CoV Urbani / Binding of serum 6 to looped/cyclic peptides of protein M of SARS-CoV Urbani / Binding of serum 37 to looped/cyclic peptides of protein M of SARS-CoV Urbani / Binding of serum 6 to linear peptides of protein X3 of SARS-CoV Urbani / Binding of serum 37 to linear peptides of protein X3 of SARS-CoV Urbani / Binding of serum 37 to looped/cyclic peptides of protein X3 of SARS-CoV Urbani / Binding of serum 6 to linear peptides of protein X4 of SARS-CoV Urbani / Binding of serum 37 to linear peptides of protein X4 of SARS-CoV Urbani / Binding of serum 37 to looped/cyclic peptides of protein X4 of SARS-CoV Urbani / Binding of serum 6 to linear peptides of protein X5 of SARS-CoV Urbani / Binding of serum 37 to linear peptides of protein X5 of SARS-CoV Urbani / Binding of serum 37 to looped/cyclic peptides of protein X5 of SARS-CoV Urbani / Binding of serum 6 to linear peptides of protein N of SARS-CoV Urbani / Binding of serum 37 to linear peptides of protein N of SARS-CoV Urbani / Binding of serum 6 to linear peptide (PEPSCAN-ELISA) / Binding of serum 1a to looped/cyclic peptides of protein N of SARS-CoV Urbani / Binding of serum 1b to looped/cyclic peptides of protein N of SARS-CoV Urbani / Binding of serum 2 to looped/cyclic peptides of protein N of SARS-CoV Urbani / Binding of serum 6 to looped/cyclic peptides of protein N of SARS-CoV Urbani / Binding of serum 37 to looped/cyclic peptides of protein N of SARS-CoV Urbani / Binding of serum 62 to looped/cyclic peptides of protein N of SARS-CoV Urbani / Binding of serum London to looped/cyclic peptides of protein N of SARS-CoV Urbani / Binding of serum SARS-green to looped/cyclic peptides of protein N of SARS-CoV Urbani: unit not given here
# [3] = test system: rabbit serum obtained by immunizing a rabbit with the SARS-CoV strain Frankfurt 1; format: binding; parameters: Binding of a rabbit serum to linear peptides / Binding of a rabbit serum to looped peptides / Rabbit serum linear peptides / Rabbit serum looped peptides / Binding of a rabbit serum to linear peptides of protein N of SARS-CoV Urbani (Rabbit serum linear peptides) / Binding of a rabbit serum to looped/cyclic peptides of protein N of SARS-CoV Urbani (Rabbit serum looped peptides): unit not given here
sequence,measurement,setting,value
NLVIGFLFLAWIMLL,Binding of Control Serum Blood-Bank to Looped peptides of the protein M of SARS-CoV Urbani,[1],0.6
same,Binding of Control serum Blood-bank to linear peptides of the protein M of SARS-CoV Urbani,[1],0.5
same,Binding of Control serum LUMC to linear peptides of the protein M of SARS-CoV Urbani,[1],0.3
same,Binding of Control serum LUMC to looped peptides of the protein M of SARS-CoV Urbani,[1],0.8
same,Binding of serum 1a to linear peptides of protein M of SARS-CoV Urbani,[2],0.7
same,Binding of serum 1a to looped/cyclic peptides of protein M of SARS-CoV Urbani,[2],0.7
same,Binding of serum 1b to linear peptides of protein M of SARS-CoV Urbani,[2],0.5
same,Binding of serum 1b to looped/cyclic peptides of protein M of SARS-CoV Urbani,[2],0.6
same,Binding of serum 2 to linear peptides of protein M of SARS-CoV Urbani,[2],0.5
same,Binding of serum 2 to looped/cyclic peptides of protein M of SARS-CoV Urbani,[2],0.5
same,Binding of serum 6 to linear peptides of protein M of SARS-CoV Urbani,[2],0.3
same,Binding of serum 6 to looped/cyclic peptides of protein M of SARS-CoV Urbani,[2],0.6
same,Binding of serum 37 to linear peptides of protein M of SARS-CoV Urbani,[2],0.6
same,Binding of serum 37 to looped/cyclic peptides of protein M of SARS-CoV Urbani,[2],0.6
same,Binding of serum 62 to linear peptides of protein M of SARS-CoV Urbani,[2],0.7
same,Binding of serum 62 to looped/cyclic peptides of protein M of SARS-CoV Urbani,[2],0.7
same,Binding of serum London to linear peptides of protein M of SARS-CoV Urbani,[2],0.3
same,Binding of serum London to looped/cyclic peptides of protein M of SARS-CoV Urbani,[2],0.3
same,Binding of serum SARS-green to linear peptides of protein M of SARS-CoV Urbani,[2],0.2
same,Binding of serum SARS-green to looped/cyclic peptides of protein M of SARS-CoV Urbani,[2],0.3
same,Binding of serum SARS-yellow to linear peptides of protein M of SARS-CoV Urbani,[2],0.0
same,Binding of serum SARS-yellow to looped/cyclic peptides of protein M of SARS-CoV Urbani,[2],0.5
same,Rabbit serum linear peptides,[3],0.2
same,Rabbit serum looped peptides,[3],0.2
NSVTDTIVVTEGDGI,Binding of Control Serum Blood-Bank to Looped peptides,[1],0.4
same,Binding of Control serum Blood-bank to linear peptides,[1],0.3
same,Binding of Control serum LUMC to linear peptides,[1],0.4
same,Binding of Control serum LUMC to looped peptides,[1],0.5
same,Binding of serum 1a to linear peptides of protein X1 of SARS-CoV Urbani,[2],0.6
same,Binding of serum 1a to looped/cyclic peptides of protein X1 of SARS-CoV Urbani,[2],0.4
same,Binding of serum 1b to linear peptides of protein X1 of SARS-CoV Urbani,[2],0.5
same,Binding of serum 1b to looped/cyclic peptides of protein X1 of SARS-CoV Urbani,[2],0.3
same,Binding of serum 2 to linear peptides of protein X1 of SARS-CoV Urbani,[2],0.4
same,Binding of serum 2 to looped/cyclic peptides of protein X1 of SARS-CoV Urbani,[2],0.2
same,Binding of serum 6 to linear peptides of protein X1 of SARS-CoV Urbani,[2],0.4
same,Binding of serum 6 to looped/cyclic peptides of protein X1 of SARS-CoV Urbani,[2],0.2
same,Binding of serum 37 to linear peptides of protein X1 of SARS-CoV Urbani,[2],0.5
same,Binding of serum 37 to looped/cyclic peptides of protein X1 of SARS-CoV Urbani,[2],0.4
same,Binding of serum 62 to linear peptides of protein X1 of SARS-CoV Urbani,[2],0.4
same,Binding of serum 62 to looped/cyclic peptides of protein X1 of SARS-CoV Urbani,[2],0.4
same,Binding of serum London to linear peptides of protein X1 of SARS-CoV Urbani,[2],0.2
same,Binding of serum London to looped/cyclic peptides of protein X1 of SARS-CoV Urbani,[2],0.2
same,Binding of serum SARS-green to linear peptides of protein X1 of SARS-CoV Urbani,[2],0.2
same,Binding of serum SARS-green to looped/cyclic peptides of protein X1 of SARS-CoV Urbani,[2],0.3
same,Binding of serum SARS-yellow to linear peptides of protein X1 of SARS-CoV Urbani,[2],0.6
same,Binding of serum SARS-yellow to looped/cyclic peptides of protein X1 of SARS-CoV Urbani,[2],0.3
same,Binding of a rabbit serum to linear peptides,[3],0.1
same,Binding of a rabbit serum to looped peptides,[3],0.5
NTRGNTYSTAWLCAL,Binding of Control Serum Blood-Bank to Looped peptides,[1],0.4
same,Binding of Control serum Blood-bank to linear peptides,[1],0.8
same,Binding of Control serum LUMC to linear peptides,[1],0.7
same,Binding of Control serum LUMC to looped peptides,[1],0.5
same,Binding of serum 1a to linear peptides of protein X5 of SARS-CoV Urbani,[2],0.9
same,Binding of serum 1a to looped/cyclic peptides of protein X5 of SARS-CoV Urbani,[2],0.4
same,Binding of serum 1b to linear peptides of protein X5 of SARS-CoV Urbani,[2],0.6
same,Binding of serum 1b to looped/cyclic peptides of protein X5 of SARS-CoV Urbani,[2],0.2
same,Binding of serum 2 to linear peptides of protein X5 of SARS-CoV Urbani,[2],0.6
same,Binding of serum 2 to looped/cyclic peptides of protein X5 of SARS-CoV Urbani,[2],0.4
same,Binding of serum 6 to linear peptides of protein X5 of SARS-CoV Urbani,[2],0.7
same,Binding of serum 6 to looped/cyclic peptides of protein X5 of SARS-CoV Urbani,[2],0.2
same,Binding of serum 37 to linear peptides of protein X5 of SARS-CoV Urbani,[2],0.7
same,Binding of serum 37 to looped/cyclic peptides of protein X5 of SARS-CoV Urbani,[2],0.5
same,Binding of serum 62 to linear peptides of protein X5 of SARS-CoV Urbani,[2],0.7
same,Binding of serum 62 to looped/cyclic peptides of protein X5 of SARS-CoV Urbani,[2],0.7
same,Binding of serum London to linear peptides of protein X5 of SARS-CoV Urbani,[2],0.7
same,Binding of serum London to looped/cyclic peptides of protein X5 of SARS-CoV Urbani,[2],0.1
same,Binding of serum SARS-green to linear peptides of protein X5 of SARS-CoV Urbani,[2],0.6
same,Binding of serum SARS-green to looped/cyclic peptides of protein X5 of SARS-CoV Urbani,[2],0.3
same,Binding of serum SARS-yellow to linear peptides of protein X5 of SARS-CoV Urbani,[2],0.5
same,Binding of serum SARS-yellow to looped/cyclic peptides of protein X5 of SARS-CoV Urbani,[2],0.5
same,Rabbit serum linear peptides,[3],0.8
same,Rabbit serum looped peptides,[3],0.5
